# According to article PMC12040169 (PLOS Biology, 2025):
# Test: in vitro
# Conditions: human, hela cells, % viability
row,SMILES,"viability at 28.5 h, 10 µM [%]"
1,CCN(C(=O)c1ccc(C)nc1)[C@H]1CCO[C@@H](c2cccc(-c3cc(F)cc(F)c3)c2)C1 [CBK285856],91
2,Cc1ccc(Oc2ccc(CNC(=O)c3sc4nc[nH]c(=O)c4c3C)cc2)cc1 [CBK285857],91.3
3,COc1ccc(CC(=O)N2CCCCC2c2cc(-c3ccc(F)cc3)cc(C)n2)cc1OC (stereo not drawn) [CBK285858],98.8
4,CC(C)NC(=O)c1cc([C@H]2CC[C@H](CNC(=O)Cn3cccn3)CC2)nc2ccccc12 [CBK285859],112
5,Cc1n[nH]cc1C(=O)NC[C@H]1CC[C@H](c2cc(C(=O)NC(C)C)c3ccccc3n2)CC1 [CBK285862],96.3
6,COc1ccc(CC(C(=O)Nc2ccc3nc[nH]c(=O)c3c2)c2ccccc2)cc1 (stereo not drawn) [CBK285863],94.3
7,COc1ccc(-c2ccccc2NC(=O)c2ccc(Cn3cnnn3)cc2)cc1 [CBK285866],96.4
8,CC(C)CNC(=O)c1cc([C@H]2CC[C@H](CNC(=O)c3cnn(C)c3)CC2)nc2ccccc12 [CBK285867],114
9,CNC(=O)c1sc2ccccc2c1C1CN(Cc2cn(C)c3ccc(F)cc23)CCO1 (stereo not drawn) [CBK285868],87.4
10,CC(C)NC(=O)c1sc2ccccc2c1C1CN(C(=O)CC2CCCCC2)CCO1 (stereo not drawn) [CBK285869],91.5
11,Cc1c(C(=O)N2CCC(c3c(C(=O)NC(C)C)sc4ccccc34)C2)[nH]c2ccccc12 (stereo not drawn) [CBK285872],84.8
12,CC(C)NC(=O)c1sc2ccccc2c1C1CCN(C(=O)CCc2ccccc2)C1 (stereo not drawn) [CBK285874],99.2
13,CNC(=O)c1sc2ccccc2c1C1CCN(C(=O)CCN(C)c2ccc(F)cc2)C1 (stereo not drawn) [CBK285878],96.5
14,CNC(=O)c1sc2ccccc2c1C1CCN(Cc2ccc(Oc3ncccn3)cc2)C1 (stereo not drawn) [CBK285881],85.9
15,CNC(=O)c1sc2ccccc2c1C1CCN(Cc2cnn(-c3ccc(F)cc3)c2)C1 (stereo not drawn) [CBK285882],84.1
16,Cc1ccc(CC(=O)N2CCC(c3ncc(C(=O)Nc4ccc(F)cc4)c(C)n3)CC2)cc1 [CBK285884],111
17,Cc1cccc(CC(=O)N2CCC(c3ncc(C(=O)Nc4ccc(F)cc4)c(C)n3)CC2)c1 [CBK285885],101
18,O=c1[nH]cc(S(=O)(=O)N2CCN(Cc3ccccc3Cl)CC2)c(=O)[nH]1 [CBK285889],97.1
19,Cc1nn(C(C)C)c(C)c1CN1CCC(c2c(C(=O)NC(C)C)sc3ccccc23)C1 (stereo not drawn) [CBK285890],95.5
20,CC(=O)NCc1ccc(-c2ccc(C(=O)NC3(c4ccccc4)CCCC3)c(C)n2)cc1 [CBK285891],96
21,CC(=O)N1CCC(c2c(C(=O)Nc3cccc(CN4CCCC4)c3)sc3ccccc23)C1 (stereo not drawn) [CBK285892],110
22,CC(C)NC(=O)c1cc(C2CN(Cc3ccc4ncccc4c3)CCO2)nc2ccccc12 (stereo not drawn) [CBK285895],92.9
23,Cc1ncc(CN2CCOC(c3cc(C(=O)NCC(C)C)c4ccccc4n3)C2)s1 (stereo not drawn) [CBK285897],89.9
24,CC(C)CC(=O)N1CCC(Cc2ccccc2-c2cccs2)(C(=O)NC(C)C)CC1 [CBK285898],87.3
25,CC(C)c1csc(NC(=O)CC2CCN(S(=O)(=O)c3cccc(F)c3)CC2)n1 [CBK285902],83.4
26,CC(C)c1nnc(NC(=O)CC2CCN(C(=O)C3(c4ccccc4)CCCC3)CC2)s1 [CBK285905],94.9

row,SMILES,"viability at 28.5 h, 10 µM [%]"
1,Cc1ccc(CC(=O)N2CCC(Cc3ccc(-c4cccc(C)c4)cc3)(C(N)=O)CC2)cc1 [CBK285906],89
2,NC(=O)C1(Cc2ccccc2-c2ccccc2)CCN(C(=O)Cc2ccccc2)CC1 [CBK285909],95.9
3,COc1ccc(CC(=O)N2CCC(Cc3ccccc3-c3ccccc3)(C(N)=O)CC2)cc1 [CBK285911],91.8
4,COc1cc(CN2CCC(Cc3ccccc3-c3ccccc3)(C(N)=O)CC2)cc(OC)c1 [CBK285912],88.1
5,COc1cccc(CN2CC=CCC(C3CCN(c4nc(C)cc(C)n4)CC3)C2=O)c1 (stereo not drawn) [CBK285915],85.6
6,CC(C)NC(=O)c1cc(C2CCN(C(=O)CCOc3ccccc3F)C2)nc2ccccc12 (stereo not drawn) [CBK285917],101
7,COc1cccc(C(=O)NC[C@H]2CC[C@H](c3cc(C(N)=O)c4ccccc4n3)CC2)c1OC [CBK285919],88.6
8,CC(C)NC(=O)c1cc(C2CCN(C(=O)CCCc3ccc(F)cc3)C2)nc2ccccc12 (stereo not drawn) [CBK285921],95.2
9,CNC(=O)C1(Cc2ccc(-c3cccc(C)c3)cc2)CCN(C(=O)CC(C)(C)C)CC1 [CBK285923],86.4
10,Cc1cc(C)nc(N2CCCC(O)(c3nc(C)c(CCOc4ccccc4)s3)CC2)n1 (stereo not drawn) [CBK285924],111
11,CC(C)CNC(=O)c1cc(C2CN(Cc3c[nH]nc3C(C)(C)C)CCO2)nc2ccccc12 (stereo not drawn) [CBK285925],104
12,Cc1ccc2c(c1)cc(C(=O)N1CCC(C(=O)NCCc3ccc(Cl)cc3)C1)n2C (stereo not drawn) [CBK285926],103
13,CC(C)NC(=O)c1sc2ccccc2c1C1CCN(S(=O)(=O)c2ccccc2)C1 (stereo not drawn) [CBK285927],83.1
14,Cc1cc(-c2cnc(N)nc2)cc(C2CCCN(C(=O)COc3c(C)cccc3C)C2)n1 (stereo not drawn) [CBK285933],103
15,Cc1cc(-c2cnc(N)nc2)cc(C2CCCN(S(=O)(=O)c3ccc(F)c(C)c3)C2)n1 (stereo not drawn) [CBK285934],105
16,COc1ccc(-c2ccccc2NC(=O)C2CC(=O)N(Cc3cccc(F)c3)C2)cc1 (stereo not drawn) [CBK285937],89.3
17,COc1ccc(CCC(=O)N2CCCC2c2cc(Nc3nccs3)cc(C)n2)cc1 (stereo not drawn) [CBK285939],90
18,O=C(CN1CCCC1c1ccc(Nc2ccc(F)cn2)cn1)Nc1ccc(F)cc1 (stereo not drawn) [CBK285941],106
19,CC(Cc1ccc(N(C)C)cc1)NC(=O)C1CN(S(=O)(=O)c2ccc(F)cc2)C1 (stereo not drawn) [CBK285942],114
20,Cn1c(-c2ccccc2)cnc1NC(=O)C1CN(S(=O)(=O)c2ccc(F)cc2)C1 [CBK285945],98.4
21,O=C(CCn1c(=O)oc2ccccc21)Nc1ccc2c(c1)CN(Cc1ccccc1)C2 [CBK285946],120
22,COc1cccc2[nH]c(C(=O)N3CCOC(c4cccc(-c5c(F)cccc5F)n4)C3)cc12 (stereo not drawn) [CBK285948],110
23,O=c1[nH]c(=O)c2cc(S(=O)(=O)N3CCc4[nH]c5ccccc5c4C3)ccc2[nH]1 [CBK285949],96.7
24,Cc1cccc(CNC(=O)CC2CCN(Cc3cccc(C(F)(F)F)c3)CC2)n1 [CBK285950],105
25,Cn1c(=O)oc2cc(NC(=O)CC3CCN(Cc4cccc(C(F)(F)F)c4)CC3)ccc21 [CBK285953],90
26,O=C(CC1CCN(Cc2cccc(C(F)(F)F)c2)CC1)NCc1ccc2[nH]c(=O)[nH]c2c1 [CBK285954],97.8

row,SMILES,"viability at 28.5 h, 10 µM [%]"
1,CC(C)(CNC(=O)c1ccc(=O)n(CC(=O)Nc2ccc(F)cc2)c1)c1cccc(F)c1 [CBK285955],86.7
2,CCOc1cc(F)ccc1NC(=O)CC1CCN(c2nc(C)cc(C)n2)CC1 [CBK285958],103
3,Cn1cnc2ccc(NC(=O)CC3CCN(C(=O)CC4CCCCC4)CC3)cc21 [CBK285961],84.1
4,O=C(CC1CCN(C(=O)CC2CCCCC2)CC1)NCc1ccccc1N1CCCC1 [CBK285962],99.2
5,Cn1c(-c2ccccc2)cnc1NC(=O)CC1CCN(C(=O)Cc2ccccc2)CC1 [CBK285966],96.9
6,Cc1nc2ccc(NC(=O)CC3CCN(C(=O)CC4CCCCC4)CC3)cc2[nH]1 [CBK285967],94.6
7,Cc1cccnc1Nc1ccc(C2CCCN(C(=O)Cc3c[nH]c4ccccc34)C2)nc1 (stereo not drawn) [CBK285968],97.7
8,Cc1cccnc1Nc1ccc(C2CCCN(C(=O)Cc3ccc4c(c3)CCCO4)C2)nc1 (stereo not drawn) [CBK285969],89.8
9,COc1ccc(OC(C)(C)C(=O)N2CCCC(c3ccc(Nc4ncccn4)cn3)C2)cc1 (stereo not drawn) [CBK285970],83.9
10,Cc1csc(Nc2cccc(C3CCCN3C(=O)CCOc3ccccc3C)n2)n1 (stereo not drawn) [CBK285977],101
11,Cc1cc(C)c2nc(NC(=O)c3ccc(=O)n(CC(=O)NC4CCCCC4)c3)sc2c1 [CBK285980],107
12,O=C(Cn1cc(C(=O)Nc2cc(F)ccc2N2CCCC2)ccc1=O)NC1CCCCC1 [CBK285981],102
13,O=C(Cn1cc(C(=O)NCC2(c3ccccc3Cl)CC2)ccc1=O)NC1CCCCC1 [CBK285985],92.7
14,O=C(Cn1cc(C(=O)NC2(c3ccccc3)CCCC2)ccc1=O)NC1CCCCC1 [CBK285986],82.6
15,COc1c(C)cccc1C(=O)N1CCCC(c2ccc(Nc3nc(C)cc(C)n3)cn2)C1 (stereo not drawn) [CBK285989],98.5
16,O=C(CC1Oc2ccccc2NC1=O)Nc1ccc2c(c1)CN(Cc1ccccc1)C2 (stereo not drawn) [CBK285991],88
17,COc1ccc(C(NC(=O)CC2CCN(c3nc(C)cc(C)n3)CC2)C2CC2)cc1 (stereo not drawn) [CBK285994],93.4
18,Cc1cc(C)nc(N2CCC(CC(=O)NCCOc3cccc(F)c3)CC2)n1 [CBK285996],112
19,COc1ccccc1-c1ccccc1CN(C)Cc1ccccc1N1CCOCC1 [CBK286000],88.7
20,O=C(CC1CCN(C(=O)Cc2ccccc2)CC1)Nc1nc2c(s1)CCCCC2 [CBK286001],90.3
21,Cc1cc(CCCC(=O)N2CCCC(c3ccc(Nc4ncccn4)cn3)C2)ccc1F (stereo not drawn) [CBK286003],78.6
22,O=C(Nc1nc2c(s1)CCCCC2)C1CN(S(=O)(=O)c2ccc(F)cc2)C1 [CBK286005],95
23,O=C(Nc1ccc(F)cc1)c1ccc(=O)n(CC(=O)N2CCC3(CCCCC3)C2)c1 [CBK286006],94.9
24,Cc1cc(C)nc(Nc2ccc(C3CCCN(C(=O)C(C)(C)c4cccc(F)c4)C3)nc2)n1 (stereo not drawn) [CBK286007],85.2
25,Cc1ccc(C2CCCN2C(=O)c2cccn(CC(=O)NC3CCCCC3)c2=O)cc1C (stereo not drawn) [CBK286009],92.2
26,COc1cc(C)c(C)cc1S(=O)(=O)N1[C@@H](c2ccccc2F)C[C@@H]2NC(=O)CCC[C@H]21 [CBK286012],112
